Reference: article PMC11533527, “A yeast two-hybrid system to obtain triple-helical ligands from combinatorial random peptide libraries” (The Journal of Biological Chemistry, 2024)
Where no end group is shown, it is not given here.

What was measured:
[1] = test system: full-length mouse PEDF (GAL4-BD-fusion); experiment: Yeast two-hybrid interaction of AD-fusion peptides with BD-fusion WT-PEDF; format: cell-based; conditions: yeast diploids cultured at 25 °C for 5 days
Text: To determine whether the peptides with the obtained sequences bind to PEDF in the same manner as the native PEDF-binding sequence, α1(I)930–938, we examined independent two-hybrid interactions of the three peptides and their mutants in which Arg at Yaa4 was substituted with Ala. […] We also examined the binding of the peptides to collagen-binding-null or heparin-binding-null PEDF mutants that we already reported ([33]). […] Meanwhile, the interaction was not observed for the peptide with the 1-2 sequence, probably because Cys at Xaa9 led to weaker interaction with PEDF than Leu ([15]). […] By contrast, the interactions were maintained using heparin-binding-null PEDF mutant (PEDF R148A) as a bait protein.
The bait and prey plasmids were transformed into S. cerevisiae Y2H gold (MATa, trp1-901, leu2-3, 112, ura3-52, his3-200, gal4Δ, gal80Δ, LYS2::GAL1UAS-Gal1TATA-His3, GAL2UAS-Gal2TATA-Ade2, URA3::MEL1UAS-Mel1TATA, AUR1-C MEL1; TaKaRa) and Y187 strains (MATα, ura3-52, his3-200, ade2-101, trp1-901, leu2-3, 112, gal4Δ, gal80Δ, met-, URA3::GAL1UAS-Gal1TATA-LacZ, MEL1; TaKaRa), in accordance with the manufacturer’s protocol. They were incubated on SD/-Trp and SD/-Leu plates, respectively, at 30 °C for 4–5 days for the selection of transformed clones.
Diploids were prepared by mixing them on yeast peptone dextrose adenine (YPDA) plates. After incubation at 30 °C overnight, they were spread on minimal-medium double-dropout (DDO; SD/-Leu-Trp) plates and incubated at 30 °C for 2–3 days for the selection of diploids.
(§1) Y2H interaction was detected by incubation of the generated diploids on minimal-medium quadruple-dropout (QDO; SD/-Leu-Trp-His-Ade) plates with 40 μg/ml X-α-Gal (FUJIFILM Wako Pure Chemical, Osaka, Japan) and 200 ng/ml aureobasidin A (TaKaRa) (QDOGA) plates and incubated for 3–5 days. Positivity for interaction was recorded upon the generation of yeast colonies that appeared blue.

HSP47 (GAL4-BD-fusion) = experiment: Yeast two-hybrid interaction with BD-fusion HSP47 (indicator of triple-helical conformation); format: cell-based, mouse
Text: We expressed (Pro-Gly-Pro)-repeating peptides with a repeat number of 10, 13, or 23, as GAL4-AD-fusion proteins in yeast cells. The lengths of (Pro-Gly-Pro)10, (Pro-Gly-Pro)13, and (Pro-Gly-Pro)23 correspond to those of the N-terminal host, the guest plus the N-terminal host, and the guest plus the N- and C-hosts in the above peptide design (Fig. 1B), respectively. The peptides with fewer (Pro-Gly-Pro)-repeats have lower thermal stability of the triple helices ([19]). We set three different culture temperatures, 16, 30, and 37 °C, with the expectation of identifying the binding of BD-fusion HSP47 to these three peptides with GAL4-AD by the yeast two-hybrid system (Fig. 3). The mated yeast cells were selected by His and Ade auxotrophy in the presence of aureobasidin and X-α-Gal. When HSP47 interacts with the peptides, GAL4-BD and GAL4-AD are brought into proximity to activate the transcription of reporter genes (AUR1-C, ADE2, HIS3, and MEL1). The reporter gene expression allows yeast cells to survive on the plates and turn blue by degrading X-α-Gal. The interaction between HSP47 (bait) and peptides (prey) was detected by the growth of blue colonies on the selection plates. […] HSP47 bound only to (Pro-Gly-Pro)23 in yeast cells at 37 °C. At 30 °C, HSP47 bound to (Pro-Gly-Pro)13 as well as (Pro-Gly-Pro)23, but not to (Pro-Gly-Pro)10. At 16 °C, HSP47 bound to all three of the peptides.
A gene fragment encoding full-length mature mouse PEDF and HSP47 with EcoRI and SalI sites was obtained by PCR amplification, as described in the literature ([15], [45]). The DNA fragments and a pGBKT7 vector were ligated after digestion with EcoRI and SalI and transformed into E. coli HST08 competent cells (TaKaRa, Shiga, Japan). To prepare plasmids encoding PEDF R148A and D255N mutants, inverse PCR was performed with the above GAL4-BD-fused PEDF in a pGBKT7 vector as a template by Primestar MAX (TaKaRa). The PCR product was ligated with Gibson assembly reagents (New England Biolabs, Hertfordshire, UK), followed by transformation into HST08 competent cells. […]
as §1

Substance	Two-hybrid interaction with BD-fusion WT-PEDF (blue colonies on QDOGA plates) [1]	Two-hybrid interaction with HSP47 (HSP47 (GAL4-BD-fusion); cultured at 30 °C for 3 days)	Two-hybrid interaction with HSP47 (HSP47 (GAL4-BD-fusion); cultured at 37 °C for 3 days)
RGHRGFLGL [1-3, GAL4-AD-fusion peptide clone from the random library]	observed	–	–
RGVRGFEGC [1-2, GAL4-AD-fusion peptide clone from the random library]	not observed	–	–
(Pro-Gly-Pro)10-Lys-Gly-His-Arg-Gly-Phe-Ser-Gly-Leu-(Pro-Gly-Pro)10 [α1(I)930–938]	observed	–	–
(Pro-Gly-Pro)23 [GAL4-AD-fusion (Pro-Gly-Pro)23]	–	bound	bound
(Pro-Gly-Pro)13 [GAL4-AD-fusion (Pro-Gly-Pro)13]	–	bound	–
KGCRGLHGL [1-1, GAL4-AD-fusion peptide clone from the random library, flanked by (Pro-Gly-Pro)10 hosts]	observed	–	–
(Pro-Gly-Pro)10 [GAL4-AD-fusion (Pro-Gly-Pro)10]	–	not	–
